Our source for the IC50 and Kd values is PMC5707067, “Farnesyl phenolic enantiomers as natural MTH1 inhibitors from Ganoderma sinense” (Oncotarget, 2017).

As usually defined, the IC50 is the point on the concentration scale where inhibition reaches its midpoint. One may read the Kd as the constant that tells how readily two partners part at equilibrium.

The test system of data set [1] is human osteosarcoma cells (U2OS). The data set can be described thus: CCK8 cytotoxicity assay, U2OS. It counts as cell-based. Particulars: CCK8, 48 h, carcinoma cell line. An excerpt: (§1) The growth inhibitory effects of the isolated farnesyl phenolic compounds (1–8) against carcinoma cell lines [human osteosarcoma cells (U2OS), human colorectal carcinoma cells (SW620), human ES-2 ovarian carcinoma cells (ES-2)] and normal tissue cell lines [human hepatic cells (Lo2), African green monkey kidney vero cells (Vero)] were further investigated using CCK8 assay method (Table 3).
(§2) Carcinoma cell lines [human osteosarcoma cells (U2OS), human colorectal carcinoma cells (SW620), human ES-2 ovarian carcinoma cells (ES-2)] and normal tissue cell lines [human hepatic cells (Lo2), African green monkey kidney Vero cells (Vero)] The U2OS, SW620, ES-2, Lo2 and Vero were obtained from ATCC (Manassas, VA, USA). The SW620 and Vero cells were cultured in Roswell Park Memorial Institute medium (RPMI), with 10% fetal bovine serum (Hyclone) and 1% penicillin-streptomycin (Sigma). Lo2, U2OS and ES-2 cells were grown in Dulbecco's modified eagle medium (DMEM), with 10% fetal bovine serum (Hyclone) and 1% penicillin-streptomycin (Sigma). All of these cells were cultured at 37°C in a humidified atmosphere with 5% CO2. For CCK8 assay cytotoxicity evaluation of compounds, all cells were separately plated at a density of 1 × 10^4 cells/well in a 96 well plate. Cells were cultivated at 37°C in 5% CO2 atmosphere for 24 h, then medium in the wells was replaced with fresh medium containing compounds which were diluted in 8 dilution steps covering the range from 200 μM to 1.5625 μM. And DMSO was used as negative control. After 48 h incubation, 10 μL of CCK8 solution was added to each well. After 30 min, the optical density (OD) of each well was measured at wavelength of 450 nm on spectrophotometer. Data were corrected for background (no-cell control) and expressed as a percentage of the value for untreated cells. The IC50 values of the isolated compounds were derived from the mean OD values of the triplicate tests versus the drug concentration curves.

Data set [2] has as its system human colorectal carcinoma cells (SW620). The experiment in a line: CCK8 cytotoxicity assay, SW620. It counts as cell-based. Particulars: CCK8, 48 h, carcinoma cell line.
Source text: as §1, §2
(In general: Tetrazolium dyes change colour on reduction, which living cells bring about.)

Data set [3] relates to human ES-2 ovarian carcinoma cells (ES-2). The data set can be described thus: CCK8 cytotoxicity assay, ES-2. It counts as cell-based. Particulars: CCK8, 48 h, carcinoma cell line.
Source text: as §1, §2

The test system of data set [4] is human hepatic cells (Lo2). The experiment in a line: CCK8 cytotoxicity assay, Lo2. It counts as cell-based. Particulars: CCK8, 48 h, normal tissue cell line.
Source text: as §1, §2

In data set [5] the test system is African green monkey kidney vero cells (Vero). The data set can be described thus: CCK8 cytotoxicity assay, Vero. It counts as cell-based. Particulars: CCK8, 48 h, normal tissue cell line.
Source text: as §1, §2

Data set [6] can be described thus: CCK8 cytotoxicity assay, Lo2. In kind it is cell-based, human. The settings on record: human, Lo2 human hepatic cells (normal tissue cell line), CCK8, 48 h.
Source text: as §1, §2

Data set [7] in a line: CCK8 cytotoxicity assay, Vero. It counts as cell-based, African green monkey. Particulars: African green monkey, Vero kidney cells (normal tissue cell line), CCK8, 48 h.
Source text: as §1, §2

The target in data set [8] is T1, MTH1 (Homo sapiens, UniProt P36639). The data set can be described thus: Microscale thermophoresis (MST) binding assay. Background: MST reads how a fluorescent partner responds to local heating, with and without ligand.
Description: Microscale thermophoresis method (MST) was employed to assay the binding affinity between the compounds and MTH1. […] The dissociation constant Kd values were automatically calculated by using the NT Analysis software (Nano Temper Technologies, München, Germany).
Recombinant human MTH1 was labeled with the Monolith NT™ Protein Labeling Kit RED (Cat#L001) according to the supplied labeling protocol [32]. Labelled MTH1 was kept constant at 100 nM, while all samples tested were diluted in a 20 mM HEPES (pH 7.5) and 0.05 (v/v) % Tween-20. Compounds were diluted in 12 dilution steps covering the range from 500 μM to 200 nM. After 10 min incubation at room temperature about 37°C, samples were loaded into Monolith™ standard-treated capillaries and the thermophoresis was measured at 25°C after 30 min incubation on a Monolith NT.115 instrument (NanoTemper Technologies, München, Germany). Laser power was set to 20% using 30 seconds on-time. The LED power was set to 100%. The dissociation constant Kd values were fitted by using the NTAnalysis software (NanoTemper Technologies, München, Germany). The Kd value of the binding was obtained in two ways. The first way was calculated by thermophoresis curve when there was no fluorescent change during the initial fluorescence scanning. The second way was calculated from the initial fluorescence scanning curve when compounds bound in the sites which directly interfered the fluorescence.
Data set [9] has as its target T1, MTH1. The data set can be described thus: Enzyme inhibition assay (8-oxo-dGTP hydrolysis, HPLC). In kind it is biochemical. Also on record: hexa-histidine (His6) (N, cleaved yes); made in house; host or cells: E. coli BL21 Star. The settings on record: 8-oxo-dGTP 25 μM, purified MTH1. How it is done: Microscale thermophoresis method (MST) was employed to assay the binding affinity between the compounds and MTH1. This technology can quantify protein-protein interactions or protein-small molecule interactions with high sensitivity through detecting fluorescent changes of molecules during thermophoresis.
To identify the efficacy of the eight compounds, an enzyme inhibition assay was carried out. […] Then the reaction was stop by the addition of 20 μL ice-cold Na2EDTA (50 mM). The reaction mixture was centrifugated at 15000 rpm at 4°C for 10 min. 20 μL of supernatant was injected on an HPLC column (Ultimate AQ-C18 RP-18e, 250 mm × 4.6 mm × 5 μm), and eluted isolate with 100 mM Na2HPO4-NaOH (pH 5.5)/MeOH 95:5 with flow rate 1 mL/min at column room of 30°C. […] Measurements were done in triplet, and IC50 values were calculated to compare the efficiency of various compounds.

The mark [10] stands for this setting: Homo sapiens, Ovarian carcinoma cell.

Regarding `C[C@H](Oc1cc(-c2cnn(C3CCNCC3)c2)cnc1N)c1c(Cl)ccc(F)c1Cl` [(S)-crizotinib, reference compound], the IC50 in data set [1] was determined as 32.3 ± 1.28 µM; in [2] it was 17.5 ± 1.11 µM; in data set [3], 9.09 ± 1.06 µM; in data set [4] it was 26 ± 1.2 µM; in [5] it was 16.7 ± 1.15 µM.
For `CO[C@@]1(c2cc(O)cc(O)c2)C=C(CCCC(CO)CC/C=C(\C)COC(=O)/C=C/c2ccc(O)cc2)C(=O)O1` (stereo partly drawn) [Compound 2, (5S)-3-{9-[(E)-coumaroyl]-4-hydroxymethyl-8-methyl-7-nonene}-5-(3,5-dihydroxyphenyl)-5-methoxy-2(5H)-furanone], the IC50 is 54.2 ± 1.1 µM in data set [1] (Homo sapiens, U2OS); 104 ± 1.07 µM in data set [2] (Homo sapiens, SW-620); 76.8 ± 1.09 µM in data set [3] (setting [10]); 11 ± 1.03 µM in [9]. The IC50 at 48 h in [6] was over 300 µM; in data set [7], 260.4 ± 1.16 µM. For the same molecule, the Kd in [8] turned out to be 2.38 ± 0.663 µM.
Turning to `C/C(=C\CCC(CO)CCCC1=C[C@H](c2cc(O)ccc2O)OC1=O)COC(=O)/C=C/c1ccc(O)cc1` (stereo partly drawn) [Compound 3, (5R)-3-{9-[(E)-coumaroyl]-4-hydroxymethyl-8-methyl-7-nonene}-5-(2,5-dihydroxyphenyl)-2(5H)-furanone], the IC50 in data set [1] (Homo sapiens, U2OS) stood at 73.2 ± 1.24 µM; in data set [2] (Homo sapiens, SW-620), 70.9 ± 1.08 µM; in data set [3] (setting [10]) it was 90.6 ± 1.12 µM; in data set [9] it was 22.9 ± 1.04 µM. Besides, the IC50 at 48 h in data set [6] and in data set [7] was over 300 µM each time. For the same molecule, the Kd in [8] was 246 ± 38.7 µM.
`C/C(=C\CCC(CO)CCCC1=C[C@@H](c2cc(O)ccc2O)OC1=O)COC(=O)/C=C/c1ccc(O)cc1` (stereo partly drawn) [Compound 4, (5S)-3-{9-[(E)-coumaroyl]-4-hydroxymethyl-8-methyl-7-nonene}-5-(2,5-dihydroxyphenyl)-2(5H)-furanone]: the IC50 in data set [1] (Homo sapiens, U2OS) came out at 66.4 ± 1.11 µM; in [2] (Homo sapiens, SW-620), 56.5 ± 1.15 µM; in data set [3] (setting [10]), 64.2 ± 1.28 µM; in data set [9], 22.9 ± 1.07 µM. Further, the values for the half-maximal inhibitory concentration (IC50) at 48 h in [6] and in data set [7] were 279.1 ± 2.17 µM and over 300 µM, respectively. The same molecule had a Kd in [8] of 4.63 ± 0.519 µM.
As to `CO[C@]1(c2cc(O)ccc2O)C=C(CCCC(CO)CC/C=C(\C)COC(=O)/C=C/c2ccc(O)cc2)C(=O)O1` (stereo partly drawn) [Compound 5, (5R)-3-{9-[(E)-coumaroyl]-4-hydroxymethyl-8-methyl-7-nonene}-5-(2,5-dihydroxyphenyl)-5-methoxy-2(5H)-furanone], the half-inhibitory concentration (IC50) in data set [1] (Homo sapiens, U2OS) amounted to 64.4 ± 1.08 µM; in data set [3] (setting [10]), 80.1 ± 3.56 µM; in [9], 16.3 ± 1.03 µM. Besides, the IC50 at 48 h in [6] and in data set [7] was over 300 µM in each case. In data set [8], this molecule had a Kd of 296 ± 13.3 µM.
Regarding `CO[C@@]1(c2cc(O)ccc2O)C=C(CCCC(CO)CC/C=C(\C)COC(=O)/C=C/c2ccc(O)cc2)C(=O)O1` (some centres unmarked) [Compound 6], the half-maximal inhibitory concentration (IC50) was 57.8 ± 1.07 µM in data set [1] (Homo sapiens, U2OS); 53.7 ± 1.06 µM in data set [2] (Homo sapiens, SW-620); 37.3 ± 3.56 µM in data set [3] (setting [10]); 8.62 ± 1.03 µM in data set [9]. Also, the IC50 at 48 h in data set [6] and in data set [7] was over 300 µM each time. In data set [8], this molecule registered a Kd of 113 ± 25.4 µM.
As to `CO[C@]1(c2cc(O)cc(O)c2)C=C(CC/C=C(\CO)CC/C=C(\C)COC(=O)/C=C/c2ccc(O)cc2)C(=O)O1` [Compound 7], the IC50 in data set [1] (Homo sapiens, U2OS) was 96.3 ± 1.13 µM; in [2] (Homo sapiens, SW-620), 101 ± 1.07 µM; in data set [3] (setting [10]), 74.5 ± 1.17 µM; in data set [9], 28.5 ± 1.05 µM. For the same molecule, the IC50 at 48 h in data set [6] and in data set [7] was over 300 µM each time. In addition, the affinity in data set [8], expressed as Kd, was 103 ± 32.1 µM.
Take `CO[C@@]1(c2cc(O)cc(O)c2)C=C(CC/C=C(\CO)CC/C=C(\C)COC(=O)/C=C/c2ccc(O)cc2)C(=O)O1` [Compound 8]: the IC50 in data set [1] (Homo sapiens, U2OS) came out at 95.4 ± 1.05 µM; in [2] (Homo sapiens, SW-620) it was 55.2 ± 1.16 µM; in data set [3] (setting [10]), 60.9 ± 1.34 µM; in data set [9] it was 26.6 ± 1.03 µM. Further, the IC50 at 48 h in [6] and in data set [7] was over 300 µM each time. The same molecule had a dissociation constant Kd in data set [8] of 210 ± 42.7 µM.
